Converted amounts (≈) assume the structure as drawn. Like-named read-outs stand apart in the source and are kept apart here.
Assays:
Assay type in all cases: physicochemical
[1] = Approximate solubility of freebase in 12 solvents at RT; settings: thermodynamic from solid
Protocol: Approximate solubility of freebase Form A (812608-05-A) was measured in 12 solvents at RT. For each experiment, approximately 2 mg of sample was added into a 3 mL glass vial. Solvents in Table 35 were then added step wise (50, 50, 200, 200, 500 μL) into the vials until the solids were dissolved visually or a total volume of 1 mL was reached. Solubility results summarized in Table 35 were used to guide the solvent selection in salt screening design.

[2] = Hygroscopicity by DVS at 25° C.; settings: for Hygroscopicity (%), water uptake: 25° C./80% RH
Protocol: A DVS isotherm plot was collected at 25° C. to investigate the solid form stability as a function of humidity. All the anhydrous samples were pre-equilibrated at 0% RH to remove the unbounded solvent or water before getting started. As evidenced by the water uptake of […] up to 80% RH, freebase Form A and both two salt forms were slightly hygroscopic, and no solid form change was observed after DVS evaluation (FIGS. 20A, 20B, 20C, 20D, 20E, and 20F).
Dynamic Vapor Sorption (DVS) was measured via a SMS (Surface Measurement Systems) DVS Intrinsic. The relative humidity at 25° C. were calibrated against deliquescence point of LiCl, Mg(NO3)2 and KCl.

[3] = Kinetic solubility in pH 2, 5 and 7 buffers at RT; settings: for solubility at 1 h / solubility at 2 h / solubility at 4 h / solubility at 24 h: 19 °C, aqueous buffer, thermodynamic from solid, read-out: S: solubility; for solubility at 1 h / solubility at 2 h / solubility at 4 h / solubility at 24 h / FC: solid form change / pH: final pH of supernatant / S: solubility: RT
Protocol: Kinetic solubility of two salt leads was measured in pH 2, 5, and 7 buffers to evaluate their solubility and disproportionation risk, using freebase Form A (812608-05-A) as control. […] After centrifugation, supernatants were collected for HPLC and pH tests, and wet cakes were collected for XRPD characterization. If clear solutions were obtained, accurate concentration was measured for the solutions.
Agilent 1100/1260 HPLC was utilized and detailed chromatographic conditions for purity and solubility measurement are listed in Table 39.

[4] = Solid-state stability under 40° C./75% RH for one week; settings: for Solid-state Stability: 40° C./75% RH for at least one week; for FC: form change based on XRPD results / Purity vs. Initial (%): 40° C./75% RH; for FC: form change based on XRPD results / Purity vs. Initial (%) / Purity (area %): one week; for Purity (area %): after 40° C./75% RH, HPLC
Protocol: Solid-state stability of freebase Form A, HCl salt Form A and fumarate Form A was evaluated under 40° C./75% RH for one week. Stability samples were characterized by XRPD to check any solid form change and by HPLC to check purity change.

[5] = Estimated pKa values; settings: method not stated

## COc1cc(Nc2nccc(Nc3cccnc3-c3ccccn3)n2)ccc1N1CCN(C)CC1 [Freebase Form A, N^4-(2,2′-bipyridin-3-yl)-N^2-(3-methoxy-4-(4-methylpiperazin-1-yl)phenyl)pyrimidine-2,4-diamine]
[1]; organic solvent or mixture, ACN
  solubility: < 2000 µg/mL
[1]; organic solvent or mixture, Acetone
  solubility: < 2400 µg/mL
[1]; organic solvent or mixture, EtOAc
  solubility: < 2500 µg/mL
[1]; organic solvent or mixture, EtOH
  solubility: 2100 to 4200 µg/mL (≈ 4.48 to 8.96 mM)
[1]; organic solvent or mixture, IPA
  solubility: < 2400 µg/mL
[1]; organic solvent or mixture, IPAc
  solubility: < 2400 µg/mL
[1]; organic solvent or mixture, MIBK
  solubility: 1900 to 3800 µg/mL (≈ 4.05 to 8.11 mM)
[1]; organic solvent or mixture, MeOH
  solubility: 2400 to 4800 µg/mL (≈ 5.12 to 10.2 mM)
[1]; organic solvent or mixture, THF
  solubility: 3600 to 6000 µg/mL (≈ 7.68 to 12.8 mM)
[1]; organic solvent or mixture, Toluene
  solubility: 2000 to 4000 µg/mL (≈ 4.27 to 8.54 mM)
[1]; organic solvent or mixture, n-Heptane
  solubility: < 2100 µg/mL
[1]; water, H2O
  solubility: < 1900 µg/mL
[2]
  Hygroscopicity (%), water uptake: (0.60) %
[3]; pH 2 buffer, 1 hr
  solubility at 1 h: 4300 µg/mL (≈ 9.18 mM)
  FC: solid form change: No
  pH: final pH of supernatant: 6.2
[3]; pH 2 buffer, 2 hrs
  solubility at 2 h: 4100 µg/mL (≈ 8.75 mM)
  FC: solid form change: No
  pH: final pH of supernatant: 6.2
[3]; pH 2 buffer, 4 hrs
  solubility at 4 h: 4100 µg/mL (≈ 8.75 mM)
  FC: solid form change: No
  pH: final pH of supernatant: 6.2
[3]; pH 2 buffer, 24 hrs
  solubility at 24 h: 3200 µg/mL (≈ 6.83 mM)
  FC: solid form change: No
  pH: final pH of supernatant: 6.1
[3]; pH 5 buffer, 1 hr
  solubility at 1 h: 7400 µg/mL (≈ 15.8 mM)
  FC: solid form change: No*
  pH: final pH of supernatant: 6.2
[3]; pH 5 buffer, 2 hrs
  solubility at 2 h: 7200 µg/mL (≈ 15.4 mM)
  FC: solid form change: No*
  pH: final pH of supernatant: 6.3
[3]; pH 5 buffer, 4 hrs
  solubility at 4 h: 6300 µg/mL (≈ 13.4 mM)
  FC: solid form change: No
  pH: final pH of supernatant: 6.4
[3]; pH 5 buffer, 24 hrs
  solubility at 24 h: 6600 µg/mL (≈ 14.1 mM)
  FC: solid form change: No
  pH: final pH of supernatant: 6.4
[3]; pH 7 buffer, 1 hr
  solubility at 1 h: 0.4 µg/mL (≈ 0.000854 mM)
  FC: solid form change: No
  pH: final pH of supernatant: 7.0
[3]; pH 7 buffer, 2 hrs
  solubility at 2 h: 1 µg/mL (≈ 0.00213 mM)
  FC: solid form change: No
  pH: final pH of supernatant: 6.9
[3]; pH 7 buffer, 4 hrs
  solubility at 4 h: 0.4 µg/mL (≈ 0.000854 mM)
  FC: solid form change: No
  pH: final pH of supernatant: 7.0
[3]; pH 7 buffer, 24 hrs
  solubility at 24 h: 8.9 µg/mL (≈ 0.019 mM)
  FC: solid form change: No
  pH: final pH of supernatant: 7.0
[4]
  Solid-state Stability: Good physicochemical properties under 40° C./75%
  FC: form change based on XRPD results: No
  Purity vs. Initial (%): 100.0%
  Purity (area %): 99.18 area %
[5]
  pKa: 7.5

## COc1cc(Nc2nccc(Nc3cccnc3-c3ccccn3)n2)ccc1N1CCN(C)CC1.Cl [HCl Salt Form A, N^4-(2,2′-bipyridin-3-yl)-N^2-(3-methoxy-4-(4-methylpiperazin-1-yl)phenyl)pyrimidine-2,4-diamine anhydrous hydrochloric acid salt]
[2]; 25° C., 95% RH
  Water uptake: 1.40%
[2]
  Hygroscopicity (%), water uptake: (0.86) %
[3]; pH 2, 5 and 7 buffers
  Kinetic Solubility compared with freebase Form A: showed increased solubility in pH 2, 5 and 7 buffers;
[3]; pH 2 buffer, 1 hr
  S: solubility: 13400 µg/mL
  pH: final pH of supernatant: 5.5
[3]; pH 2 buffer, 2 hrs
  S: solubility: 13300 µg/mL
  pH: final pH of supernatant: 5.6
[3]; pH 2 buffer, 4 hrs
  S: solubility: 13200 µg/mL
  pH: final pH of supernatant: 5.6
[3]; pH 2 buffer, 24 hrs
  S: solubility: 11800 µg/mL
  pH: final pH of supernatant: 5.6
[3]; pH 5 buffer, 1 hr
  S: solubility: 13200 µg/mL
  pH: final pH of supernatant: 5.7
[3]; pH 5 buffer, 2 hrs
  S: solubility: 13000 µg/mL
  pH: final pH of supernatant: 5.7
[3]; pH 5 buffer, 4 hrs
  S: solubility: 13000 µg/mL
  pH: final pH of supernatant: 5.7
[3]; pH 5 buffer, 24 hrs
  S: solubility: 11600 µg/mL
  pH: final pH of supernatant: 5.7
[3]; pH 7 buffer, 1 hr
  FC: solid form change: Yes
  S: solubility: 13500 µg/mL
  pH: final pH of supernatant: 7.0
[3]; pH 7 buffer, 2 hrs
  FC: solid form change: Yes
  S: solubility: 9600 µg/mL
  pH: final pH of supernatant: 6.9
[3]; pH 7 buffer, 4 hrs
  FC: solid form change: Yes
  S: solubility: 9400 µg/mL
  pH: final pH of supernatant: 6.9
[3]; pH 7 buffer, 24 hrs
  FC: solid form change: Yes
  S: solubility: 210 µg/mL
  pH: final pH of supernatant: 6.4
[4]
  Solid-state Stability: Good physicochemical properties under 40° C./75%
  FC: form change based on XRPD results: No
  Purity vs. Initial (%): 99.9%
  Purity (area %): 99.54 area %
